Assay [1] deals with iNKT. Briefly: Immunomodulatory activity in mouse hepatic mononuclear cells containing iNKT cells assessed as IFNgamma release at 25 nM after 72 hrs by ELISA. The class given is functional, cell-based.
In assay [2] the test system is iNKT. Briefly: Immunomodulatory activity in mouse hepatic mononuclear cells containing iNKT cells assessed as IL4 release at 25 nM after 72 hrs by ELISA. Format: functional, cell-based.
In assay [3] the test system is iNKT. Nature of the assay: Immunomodulatory activity in mouse hepatic mononuclear cells containing iNKT cells assessed as IFNgamma release after 72 hrs by ELISA. The class given is functional, cell-based.
Assay [4] relates to iNKT. Nature of the assay: Immunomodulatory activity in mouse hepatic mononuclear cells containing iNKT cells assessed as IL4 release after 72 hrs by ELISA. Format: functional, cell-based.
The next assay concerns Mus musculus. Nature of the assay: Immunomodulatory activity in C57BL/6 mouse serum assessed as IL4 release at 2 ug/ml, iv after 2 to 16 hrs by ELISa. The class given is functional, organism-based.

For 2 molecules, Activity results are on record in ChEMBL document CHEMBL2057066, “Heteroaromatic Moieties in the Sphingosine Backbone of α-Galactosylceramides for Noncovalent Interactions with CD1d” (ACS Med Chem Lett, 2012).

Calls of active or inactive are those of the source. No cut-off for these calls is given here.

Consider `CCCCCCCCCCCCCCCCCCCCCCCCCC(=O)N[C@@H](CO[C@H]1O[C@H](CO)[C@H](O)[C@H](O)[C@H]1O)[C@H](O)[C@H](O)CCCCCCCCCCCCCC`, for which the result in the assay on iNKT [1] and in the assay on iNKT [2] was Active.

Consider `CCCCCCCCCCCCCCCCCCCCCCCCCC(=O)N[C@@H](CO[C@H]1O[C@H](CO)[C@H](O)[C@H](O)[C@H]1O)[C@H](O)[C@H](O)c1cnn(Cc2ccc(CCCCCC)cc2)c1`, for which the Activity result in the assay on iNKT [3] and with iNKT [4] was “Dose-dependent effect” in each case. Further, the result with Mus musculus was Active.
